In brackets after ≈: the same amount, converted by molar mass. Read-outs that look alike come from different tables or passages of the source.
Columns and labels:
[1] = test system: Escherichia coli ATCC 25922; test: Microbroth dilution: EC50 of ampicillin and ceftriaxone in absence and presence of P1A; type: cell-based; conditions: for EC50: Escherichia coli, ATCC25922, P1A 0, read-out: Ceftriaxone EC50
Procedure: (§1) Escherichia coli strain 25922 was cultured from glycerol stocks to logarithmic growth in cation adjusted Mueller-Hinton broth at 37° C. in an atmospheric environment and diluted in cation adjusted Mueller-Hinton broth to achieve a starting in well concentration of 5×10^5 CFU/mL. Serial 2-fold dilution of antimicrobial compounds were prepared in cation adjusted Mueller-Hinton broth to achieve final in well concentration of 128 μg/mL to 0.13 μg/mL for ampicillin and 4 μg/mL 4 ng/mL in the absence or presence of serial 10-fold dilutions of P1A, P3A, or P4A β-lactamase standard, 5 pg/mL to 50 ng/mL for ampicillin and […] to 500 ng/mL for ceftriaxone, ceftazidime, meropenem, cefepime, cefazolin, amp/sulbactam, cefoperazone, cefotaxime, and cefuroxime. Antibiotics were either added to the P1A and incubated for 30 min at 37° C. (pre-incubation) prior to addition of bacteria, or added to the plates following the addition of P1A, P3A, P4A, and bacteria (simultaneous). All concentrations and combinations were evaluated in triplicate in a 96-well plate format that contained media only, compound plus media only (colorimetric control), and untreated bacterial controls.
The 50% effective inhibitory concentration (EC50) of ampicillin and ceftriaxone against Escherichia coli was determined in the absence and presence of P1A β-lactamase. For the purposes of these studies, the stated effective concentration was the initial concentration of ampicillin or ceftriaxone added at the beginning of the experiment, and not a concentration measured during the course of the experiment or at the end of the incubation period.
Antibiotics were either added to the P1A and incubated for 30 min at 37° C. (Pre-incubation) prior to addition of bacteria, or added to the plates following the addition of P1A and bacteria (Simultaneous). All concentrations and combinations were evaluated in triplicate in a 96-well plate format. Following overnight incubation, the 0D625 of the plates was measured in a Spectramax 384 plate reader and the data were imported into a customized Excel spreadsheet for the determination of the 50% effective inhibitory concentration at (EC50) by linear regression analysis. For the purposes of these studies, the stated effective concentration is the initial concentration of ampicillin or ceftriaxone added at the beginning of the experiment, and not a concentration measured during the course of the experiment or at the end of the incubation period.
Antibiotics were either added to the P1A and incubated for 30 min at 37° C. (Pre-incubation) prior to addition of bacteria, or added to the plates following the addition of P1A and bacteria (Simultaneous). All concentrations and combinations were evaluated in triplicate in a 96-well plate format. Following overnight incubation, the OD625 of the plates was measured in a Spectramax 384 plate reader and the data were imported into a customized Excel spreadsheet for the determination of the 50% effective inhibitory concentration (EC50).
Antibiotics were added to the P1A bacteria (Simultaneous). All concentrations and combinations were evaluated in triplicate in a 96-well plate format. Following overnight incubation, the OD625 of the plates was measured in a Spectramax 384 plate reader and the data were imported into a customized Excel spreadsheet for the determination of the 50% effective inhibitory concentration at (EC50) by linear regression analysis.

[2] = test system: Escherichia coli ATCC 25922; test: microbe, parasite or virus in culture; type: cell-based
Procedure: as §1
Next, the 90% effective inhibitory concentration (EC90) of ampicillin, ceftriaxone, ceftazidime, meropenem, cefepime, cefazolin, amp/sulbactam, cefoperazone, cefotaxime, and cefuroxime against Escherichia coli was determined in the absence and presence of P1A, P3A, or P4A β-lactamase. For the purposes of these studies, the stated effective concentration was the initial concentration of ampicillin, ceftriaxone, ceftazidime, meropenem, cefepime, cefazolin, amp/sulbactam, cefoperazone, cefotaxime, and cefuroxime added at the beginning of the experiment, and not a concentration measured during the course of the experiment or at the end of the incubation period.
Specifically, the assay was performed by diluting (2-fold steps) the chosen antibiotic across the rows of a 96 well dish. The MIC was determined as the point at which the diluted antibiotic transitions from killing to not killing the bacteria (in this case, an E. coli strain that is sensitive to all antibiotics). P1A, P3A, and P4A were diluted (10 fold steps) down the columns (the β-lactamase concentrations increased down the columns). […] The latter point was used as the cut-off point. […] However, for this assay, the absolute MIC is not the most important parameter. The most relevant readout was the β-lactamase concentration at which the apparent MIC increases to the maximum amount of antibiotic tested.
(§2) E coli 29522 was incubated overnight in the presence of serial dilutions of antibiotic and the indicated amounts of β-lactamase protein from cell culture supernatants in a 96 well plate. Bacterial density (OD625) of the cultures was measured and the concentration at which the density was reduced by 90% relative to an untreated bacterial control (EC90) was determined. The assay was performed on two separate days and the data reported as Rep1 and Rep2. NA=not assayed.
as §2, with “determined.” for “determined. The assay was performed on two separate days and the data reported as Rep1 and Rep2. NA=not assayed.”

[3] = test system: Escherichia coli ATCC 25922; test: Microbroth dilution: EC50 of ampicillin and ceftriaxone in absence and presence of P1A; type: cell-based; conditions: absence of P1A; ceftriaxone 0.13 to 128 μg/mL
[4] = test system: Escherichia coli ATCC 25922; test: microbe, parasite or virus in culture; type: cell-based; conditions: for EC50 / EC90: Escherichia coli, ATCC25922, no enzyme; for EC90: Table 17, read-out: Ceftriaxone EC90
[5] = Preliminary enzymatic activity of P1A mutants from B. subtilis supernatants; type: biochemical; conditions: B. subtilis supernatant, one substrate concentration
Procedure: (§3) β-lactamase activity of the mutants was further characterised from E. coli cell lysates and B. subtilis growth supernatant with ampicillin, cefotaxime, ceftriaxone, cefuroxime, ceftazidime, meropenem and imipenem. The activities were determined using only one substrate concentration of each antibiotic tested. Selection of the antibiotic concentration was done with the antibiotic concentration as high as was practical, [S]>>Km. Based on these preliminary experiments, more accurate kinetic parameters were determined for a couple of mutants from both the site-directed and the random mutagenesis research lines. All the mutant enzymes selected for more detailed study were expressed in the B. subtilis host strain RS303. The cells carrying the mutated proteins were grown in minimal medium over-night after which the cells were harvested and the supernatant was concentrated in 1:10 with Amicon Ultra-4 centrifugal devices, MWCO 10000 (Amicon). Protein concentration in each culture supernatant was estimated from 12% SDS-PAGE (Criterion XT Bis-Tris, BioRad, Calif., USA) using the P1A reference material A18K31 as a standard. Kinetic parameters were measured for cefotaxime, ceftriaxone and cefuroxime for each selected mutant strain. The site-directed mutants were designed to hydrolyze cefotaxime and random mutants were screened with ceftriaxone, which made these antibiotics natural choices for determining kinetic parameters.

[6] = Kinetic parameters of P1A mutant strains; type: biochemical
Procedure: as §3

E. coli (ATCC 25922) = test: Microtiter plate antibiotic degradation activity assay; type: cell-based; conditions: enzyme 10 or 100 ng/ml; antibiotic 10, 100 or 1000 μg/ml; FIG. 8
Procedure: P1A and P4A were screened for degradation of ampicillin, ceftriazone, cefotaxime, cefozolin, cefuroxime, cefoperazone, cefepime, and ceftazidime in a microtiter plate activity assay that was designed to mimic the activity of the beta-lactamases in the gut in the presence of high antibiotic concentrations. The assay was performed by mixing 10, 100 or 1000 μg/ml of the indicated antibiotics with P1A or P4A, at concentrations of 10 or 100 ng/ml. Plates were either incubated for one hour at 37° C. after which E. coli (ATCC 25922) was added, or E. coli was added immediately after the addition of the beta-lactamase enzymes. The plates were incubated overnight and the bacterial growth quantified by measuring the absorbance at 625 nm (OD625) in a Spectramax 384 Plus plate reader. The analysis was performed twice for each beta-lactamase and antibiotic. The beta-lactamase activity of the culture supernatants was determined as positive or negative based on the appearance of bacterial growth in the individual wells. An OD625 of 1.0 or greater indicated maximal bacterial growth, therefore complete antibiotic degradation and high beta-lactamase activity.

[7] = cited from earlier work
[8] = concentrated B. subtilis supernatant
[9] = relative values of P1A activities

`CO/N=C(\C(=O)N[C@@H]1C(=O)N2C(C(=O)O)=C(CSc3nc(=O)c(=O)[nH]n3C)CS[C@H]12)c1csc(N)n1` [Ceftriaxone] gave an EC50 ([1]; pre-incubation, Table 12) of less than 0.13 µg/mL, an EC50 ([1]; pre-incubation, Table 13) of 0.03 µg/mL and an EC50 ([1]; simultaneous, Table 12) of less than 0.13 µg/mL. The EC50 ([1]; simultaneous, Table 13) was 0.02 µg/mL, the EC50 ([1]; simultaneous, Table 14 repeat analysis) was 0.03 µg/mL and the “Ceftriaxone EC90” value ([2]; no enzyme, 2nd value, high test 1 μg/mL, Table 17) was 0.06 µg/mL. The “ceftriaxone EC99” value [3] was less than 0.13 µg/mL, the EC50 ([4]; 1st value, high test 1 μg/mL, Table 16, read-out: Ceftriazone EC50) was 0.06 µg/mL (≈ 0.108 µM) and the EC90 ([4]; 1st value, high test 1 μg/mL) was 0.03 µg/mL (≈ 0.0541 µM). The EC50 ([4]; 2nd value, high test 1 μg/mL, Table 16, read-out: Ceftriazone EC50) was 0.06 µg/mL (≈ 0.108 µM), the EC90 ([4]; 2nd value, high test 1 μg/mL) was 0.03 µg/mL (≈ 0.0541 µM) and the EC50 ([4]; Rep 2, Table 15, read-out: Ceftriaxone EC50) was 0.02 µg/mL (≈ 0.0361 µM). For the same compound, the “Ceftriaxone EC50” value ([4]; no enzyme, Rep 1, Table 15) was 8 ng/mL.

With “P1A: Wild type; recombinant Bacillus licheniformis 749/C small exo beta-lactamase (PenP), SEQ ID NO: 1” the “AMP = ampicillin enzymatic activity” value [5] was 1.00 multiples of P1A, the “CAZ = ceftazidime enzymatic activity” value [5] was 1.00 multiples of P1A and the “CRO = ceftriaxone enzymatic activity” value [5] was 1.00 multiples of P1A. For the same compound, the “CTX = cefotaxime enzymatic activity” value [5] was 1.00 multiples of P1A, the “CXM = cefuroxime enzymatic activity” value [5] was 1.00 multiples of P1A and the “Cefotaxime Vmax” value [6, 8] was 1.18 nmol/s. For the same compound, the Cefotaxime kcat [6, 8] was 16 s⁻¹, the “Ceftriaxone Vmax” value [6, 8] was 2.81 nmol/s and the Ceftriaxone kcat [6, 8] was 25 s⁻¹. The “Cefuroxime Vmax” value [6, 8] was 1.25 nmol/s, the Cefuroxime kcat [6, 8] was 23 s⁻¹ and the “Cefotaxime Vmax” value [6, 9] was 1.00. For the same compound, the Cefotaxime kcat [6, 9] was 1 s⁻¹, the “Ceftriaxone Vmax” value [6, 9] was 1.00 and the Ceftriaxone kcat [6, 9] was 1 s⁻¹. The “Cefuroxime Vmax” value [6, 9] was 1.00, the Cefuroxime kcat [6, 9] was 1 s⁻¹ and the “more active against ampicillin than ceftriaxone” value ([1]; microbiological assay) was 1,000 fold. The inhibition by sulbactam ([2]; amp/sulbactam data) was “effectively inhibited”, the “activity for ceftriaxone, cefotaxime, and ceftazidime” value (E. coli (ATCC 25922)) was “no activity” and the “efficacy in humans with piperacillin/tazobactam” value [7] was “efficacious”.
